According to patent US5023239A, “Sialosyl cholesterol, process for producing the same, and neuropathy remedy comprising the same” (MECT Corporation, priority 1986, dated 1991):

What was measured:
ddy male mice = assay: Acute toxicity test, intravenous injection; type: in vivo, mouse; conditions: ddy male mice of 45 weeks age
Description: Acute toxicity test was conducted by intravenously injecting the compounds into ddy male mice of 45 weeks age.

[1] = system: Neuroblastoma Cell, Neuro 2a Strain; assay: Effect on proliferation / neurite propagation of neuroblastoma cell, Neuro 2a strain; type: cell-based, mouse
Description: Experiments for confirming the activity of the present compound for promoting propagation of neurites will be explained below.
Effect On Proliferation of Neuroblastoma Cell, Neuro 2a Strain
Neuro 2a was floated on culture medium consisting of 90% of Dulbecco's Modified Eagle's Midium, and 10% of fetal calf serum (FCS), and containing 100 units/ml of penicillin G and 100 micro g/ml of streptomycin sulfate, and then cultivated at 37° C. in a carbon dioxide incubator containing air into which 5% of carbon dioxide was incorporated. The vessel as used was a polystyrene tray having a diameter of 60 mm. 1 to 2×10^4 of the neuroblastoma cells were implanted in each tray and cultivated for 48 hours. The FCS-containing culture was removed from the resultant cell culture. […] When 24 and 48 hours had passed after the addition of these medicines, the number of the living cells increased in the culture, the number of the neurites increased, and the length of the neurites were measured. The experiment was conducted on three trays with respect to each concentration. The resultant data were expressed by average value+standard error (S.E).

CC(=O)NC1C(O)CC(OC2CCC3(C)C(=CCC4C3CCC3(C)C(C(C)CCCC(C)C)CCC43)C2)(C(=O)O)OC1C(O)C(O)CO [Compound (4), sodium 5-acetoamide-2-O-(5-cholesten-3-yl)-3,5-dideoxy-alpha-D-glycero-D-galacto-2-nonulopyranosonate]
LD50 (ddy male mice): 93 mg/kg | activity (in words) ([1]; 24 hours cultivation, 10 ng/ml): indicated activity | Length of neurite ± S.E. ([1]; 24 hrs, 10 ng/ml): 92.4 ± 5.31 μm/cell | Number of neurite propagated cells ([1]; 24 hrs, 10 ng/ml): 131 | Number of neurites ± S.E. ([1]; 24 hrs, 10 ng/ml): 1.2 ± 0.04 number/cell | Rate of neurite propagation (%) ([1]; 24 hrs, 10 ng/ml): 31.5% | Total number of cells ([1]; 24 hrs, 10 ng/ml): 416 | Length of neurite ± S.E. ([1]; 24 hrs, 100 ng/ml): 96.7 ± 4.12 μm/cell | Number of neurite propagated cells ([1]; 24 hrs, 100 ng/ml): 177 | Number of neurites ± S.E. ([1]; 24 hrs, 100 ng/ml): 1.2 ± 0.03 number/cell | Rate of neurite propagation (%) ([1]; 24 hrs, 100 ng/ml): 41.5% | Total number of cells ([1]; 24 hrs, 100 ng/ml): 427 | Length of neurite ± S.E. ([1]; 24 hrs, 1 μg/ml): 130.4 ± 6.12 μm/cell | Number of neurite propagated cells ([1]; 24 hrs, 1 μg/ml): 190 | Number of neurites ± S.E. ([1]; 24 hrs, 1 μg/ml): 1.2 ± 0.03 number/cell | Rate of neurite propagation (%) ([1]; 24 hrs, 1 μg/ml): 50.9% | Total number of cells ([1]; 24 hrs, 1 μg/ml): 373 | minimal effective concentration ([1]; 48 hours after addition): 10 ng/mL | Length of neurite ± S.E. ([1]; 48 hrs, 10 ng/ml): 121.9 ± 5.18 μm/cell | Number of neurite propagated cells ([1]; 48 hrs, 10 ng/ml): 219 | Number of neurites ± S.E. ([1]; 48 hrs, 10 ng/ml): 1.2 ± 0.03 number/cell | Rate of neurite propagation (%) ([1]; 48 hrs, 10 ng/ml): 46.9% | Total number of cells ([1]; 48 hrs, 10 ng/ml): 467 | Length of neurite ± S.E. ([1]; 48 hrs, 100 ng/ml): 126.0 ± 6.10 μm/cell | Number of neurite propagated cells ([1]; 48 hrs, 100 ng/ml): 193 | Number of neurites ± S.E. ([1]; 48 hrs, 100 ng/ml): 1.2 ± 0.04 number/cell | Rate of neurite propagation (%) ([1]; 48 hrs, 100 ng/ml): 47.8% | Total number of cells ([1]; 48 hrs, 100 ng/ml): 404 | Length of neurite ± S.E. ([1]; 48 hrs, 1 μg/ml): 156.3 ± 8.32 μm/cell | Number of neurite propagated cells ([1]; 48 hrs, 1 μg/ml): 182 | Number of neurites ± S.E. ([1]; 48 hrs, 1 μg/ml): 1.2 ± 0.04 number/cell | Rate of neurite propagation (%) ([1]; 48 hrs, 1 μg/ml): 49.3% | Total number of cells ([1]; 48 hrs, 1 μg/ml): 369 | growth / propagation of neurites (in words) ([1]; Neuro 2a culture): strong activity for the propagation of the neurites | activity relative to GMl (times as high) ([1]; vs GMl, from minimal effective concentrations at 48 hours, molecular weights considered): 420 times | activity relative to GQlb (times as high) ([1]; vs GQlb, from minimal effective concentrations at 48 hours, molecular weights considered): 270 times
